Data: patent US20260130885A1, “ANTIMICROBIAL COMPOSITIONS, PHARMACEUTICAL COMPOSITIONS AND USE THEREOF” (priority 2022, published 2026)
Values after ≈ are worked out from the molar mass of the structure shown. Read-outs that look alike come from different tables or passages of the source.

Assays:
[1] = test system: S. aureus ATCC29213; assay: Antibacterial activity assay (MIC, broth microdilution); format: cell-based, Staphylococcus aureus; conditions: for MIC: Staphylococcus aureus
[2] = test system: MRSA ATCC43300; assay: as above; format: cell-based, Staphylococcus aureus; conditions: for MIC: Staphylococcus aureus
[3] = Antiproliferation assay (MTT); format: cell-based; conditions: human, read-out: CC50 of SC5005
Text: (§1) The murine macrophage cell line RAW264.7 (BCRC) and human cervical epithelioid carcinoma cell line HeLa (BCRC) were maintained in Dulbecco's modified Eagle's medium (DMEM; Gibco-BRL) supplemented with 10% heat-inactivated FBS (Gibco-BRL). The human embryonic kidney cell line HEK-293 (BCRC) and the immortalized nontumorigenic keratinocyte cell line HaCaT (obtained from Dr. Yung-Chiy Chang, National Taiwan University, Taiwan) were maintained in Roswell Park Memorial Institute (RPMI; Gibco-BRL) medium supplemented with 10% heat-inactivated FBS. Cells were cultured in T-75 flasks at 37° C. in a 5% CO2 atmosphere.
(§2) The effects of SC5005 and DHA on the viability of mammalian cells were assessed using a 3-(4,5-dimethylthiazol-2-yl)-2,5-diphenyl-2H-tetrazolium bromide (MTT) assay in six replicates per treatment group. Briefly, cells were seeded into 96-well, flat-bottomed plates at 10^4 cells/well, cultured for 24 hours, and then exposed to SC5005 at concentrations ranging from 5-30 mg/L or the combination of SC5005 with designated concentrations of DHA for 24 hours. Controls were treated with DMSO and ethanol vehicles at concentrations equal to those for drug-treated cells. At the end of treatments, the medium was replaced with 0.5 g/L MTT-containing culture medium, and the cells were incubated in a CO2 incubator at 37° C. for an additional 1.5 hours. Supernatants were removed from the wells, and the reduced MTT dye was solubilized in DMSO followed by measuring the absorbance at 570 nm of each well using a VersaMax microplate reader (Molecular Devices, USA).

[4] = test system: MRSA ATCC33592; assay: Antibacterial activity assay (MIC, broth microdilution); format: cell-based, Staphylococcus aureus; conditions: for MIC: Staphylococcus aureus
[5] = test system: antibiotic-resistant Staphylococcus aureus; assay: MIC against all strains of Table 4; format: cell-based; conditions: agent alone, all the bacterial strains under the examination
Method: The antimicrobial activity was based on MIC and MBC; MIC is the minimum inhibitory concentration and MBC is the minimum bactericidal concentration. The MIC of individual test agents against MRSA USA300 strains was determined using the broth microdilution method according to CLSI guidelines. Briefly, overnight bacterial cultures in LB medium were diluted 1:50 in fresh LB medium and incubated at 37° C. until reaching an OD600 of 0.5 to 0.6. Bacterial suspensions were diluted to a final concentration of 5×10^5 cfu/mL in fresh CAMHB and then exposed to each test agent at increasing doses in triplicate in 96-well plates for 24 hours at 37° C. The MIC of each agent was defined as the lowest concentration without visible bacterial growth. […] The lowest broth dilution that had no viable bacteria was considered the MBC.
Then, the combination effect was measured by calculating their corresponding fractional inhibitory concentration index (FICI) with the equation ΣFIC (FICi)=FICA+FICB=(CombA/MICA)+(CombB/MICB), where MICA and MICB are the MICs of drugs A and B alone, respectively, and CombA and CombB are the concentrations of drugs A and B in combination, respectively. […]
The antibacterial activity of the SC5005-DHA composition against a series of antibiotic-resistant Staphylococcus aureus was analyzed, and the results are shown in Table 4.

[6] = test system: MRSA ATCC33591; assay: Antibacterial activity assay (MIC, broth microdilution); format: cell-based, Staphylococcus aureus; conditions: for MIC: Staphylococcus aureus
[7] = Antiproliferation assay (MTT); format: cell-based, murine; conditions: mouse, RAW264.7 macrophage cells, read-out: CC50 of SC5005
Method: FIG. 2: The biofilms of S. aureus NCTC8325 (the upper left graph) and MRSA USA300 (the upper right graph) were treated with increasing concentrations of blank control (Mock), DHA, daptomycin (DAP), vancomycin (VAN), SC5005, and SC5005 in combination with DHA for 24 hours. The number of viable bacteria was then determined using a cfu assay. The data represent individual experiments and are shown as the mean±SD (n=3 per group). ns, nonsignificant, p>0.05; *p<0.05; **p<0.01; ***p<0.001. (The lower left graph) the biofilms of MRSA USA300 were treated with blank control (Mock) or SC5005 along with 80 mg/L DHA for 1, 3 or 10 minute(s). The viable bacteria in the biofilms harvested and enumerated using a cfu assay. The data represent independent experiments and are shown as mean±SD (n=3 per group). ns, nonsignificant, p>0.05; *p<0.05; **p<0.01; ***p<0.001 (The lower right graph) RAW264.7 cells were exposed to a blank control (Mock) or increasing concentrations of SC5005 and 80 mg/L DHA for […]. The viability of cells was determined by the MTT assay and expressed as a percentage relative to mock (DMSO and ethanol)-treated cells. The data shown are the mean±SD (n=3 per group).
as §1, §2

[8] = test system: MRSA ATCC49476; assay: Antibacterial activity assay (MIC, broth microdilution); format: cell-based, Staphylococcus aureus; conditions: for MIC: Staphylococcus aureus
[9] = test system: S. aureus DAP-NS; assay: as above; format: cell-based, Staphylococcus aureus; conditions: for MIC: Staphylococcus aureus

SMILES: O=C(Nc1ccc(Cl)c(C(F)(F)F)c1)C(CCCl)C(=O)Nc1ccc(Cl)c(C(F)(F)F)c1 [SC5005]
- combination effect ([1]; MIC, +8 mg/L DHA): (Syn) (Synergy (Syn) was defined as an FICI≤0.5)
- MIC ([1]; ATCC29213, +8 mg/L DHA): 0.0039 µg/mL (≈ 7.48 nM)
- MIC ([1]; ATCC29213, agent alone): 0.25 µg/mL (≈ 479 nM)
- combination effect ([2]; MIC, +8 mg/L DHA): (Syn) (Synergy (Syn) was defined as an FICI≤0.5)
- MIC ([2]; +8 mg/L DHA): 0.00024 µg/mL (≈ 0.46 nM)
- MIC ([2]; agent alone): 0.25 µg/mL (≈ 479 nM)
- CC50 at 24 h ([3]; HEK-293 cells, DHA 0 mg/L): 14.1 ± 1.4 µg/mL
- CC50 at 24 h ([3]; HEK-293 cells, DHA 4 mg/L): 15.6 ± 0.6 µg/mL
- CC50 at 24 h ([3]; HEK-293 cells, DHA 8 mg/L): 14.9 ± 1.6 µg/mL
- CC50 at 24 h ([3]; HEK-293 cells, DHA 16 mg/L): 14 ± 0.8 µg/mL
- CC50 at 24 h ([3]; HaCaT keratinocyte cells, DHA 0 mg/L): 18 ± 1.7 µg/mL
- CC50 at 24 h ([3]; HaCaT keratinocyte cells, DHA 4 mg/L): 19.5 ± 1.7 µg/mL
- CC50 at 24 h ([3]; HaCaT keratinocyte cells, DHA 8 mg/L): 20.5 ± 0.3 µg/mL
- CC50 at 24 h ([3]; HaCaT keratinocyte cells, DHA 16 mg/L): 18.1 ± 1.6 µg/mL
- CC50 at 24 h ([3]; HeLa cells, DHA 0 mg/L): 22.5 ± 0.7 µg/mL
- CC50 at 24 h ([3]; HeLa cells, DHA 4 mg/L): 24.2 ± 3.6 µg/mL
- CC50 at 24 h ([3]; HeLa cells, DHA 8 mg/L): 21.9 ± 1.6 µg/mL
- CC50 at 24 h ([3]; HeLa cells, DHA 16 mg/L): 21.4 ± 1.4 µg/mL
- combination effect ([4]; MIC, +8 mg/L DHA): (Syn) (Synergy (Syn) was defined as an FICI≤0.5)
- MIC ([4]; +8 mg/L DHA): 0.00049 µg/mL (≈ 0.939 nM)
- MIC ([4]; agent alone): 0.25 µg/mL (≈ 479 nM)
- MIC [5]: 0.25 µg/mL
- combination effect ([6]; MIC, +8 mg/L DHA): (Syn) (Synergy (Syn) was defined as an FICI≤0.5)
- MIC ([6]; +8 mg/L DHA): 0.061 ng/mL (≈ 0.117 nM)
- MIC ([6]; agent alone): 250 ng/mL (≈ 479 nM)
- CC50 at 24 h ([7]; DHA 0 mg/L): 19.5 ± 0.6 µg/mL
- CC50 at 24 h ([7]; DHA 4 mg/L): 22.6 ± 0.8 µg/mL
- CC50 at 24 h ([7]; DHA 8 mg/L): 19.7 ± 2.5 µg/mL
- CC50 at 24 h ([7]; DHA 16 mg/L): 21.2 ± 2.3 µg/mL
- combination effect ([8]; MIC, +8 mg/L DHA): (Syn) (Synergy (Syn) was defined as an FICI≤0.5)
- MIC ([8]; +8 mg/L DHA): 0.00095 ng/mL (≈ 0.00182 nM)
- MIC ([8]; agent alone): 250 ng/mL (≈ 479 nM)
- combination effect ([9]; MIC, +8 mg/L DHA): (Syn) (Synergy (Syn) was defined as an FICI≤0.5)
- MIC ([9]; +8 mg/L DHA): 0.0019 ng/mL (≈ 0.00364 nM)
- MIC ([9]; agent alone): 250 ng/mL (≈ 479 nM)
